Molecules are shown by their SMILES. Some results are limits rather than exact numbers.

In one experiment the target is T1, CK2α (Homo sapiens, UniProt P68400).
T1 construct: CK2α (residues 2-329) was produced in Escherichia coli BL21 (DE3) for kinase activity screening; His6 (N, cleaved yes); made in house; host or cells: Escherichia coli BL21 (DE3)
T1 sequence (P68400 2-329): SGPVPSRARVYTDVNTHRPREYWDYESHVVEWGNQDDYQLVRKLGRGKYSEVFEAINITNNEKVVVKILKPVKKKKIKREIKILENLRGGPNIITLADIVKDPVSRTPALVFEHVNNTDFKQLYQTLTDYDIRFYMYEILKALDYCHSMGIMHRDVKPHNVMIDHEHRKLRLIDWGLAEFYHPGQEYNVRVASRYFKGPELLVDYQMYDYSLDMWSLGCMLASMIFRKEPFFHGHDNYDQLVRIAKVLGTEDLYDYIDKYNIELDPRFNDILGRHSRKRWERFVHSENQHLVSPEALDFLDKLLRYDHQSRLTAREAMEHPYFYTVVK
Put plainly: Biochemical assay for inhibitors of CK2α kinase activity (ADP-Glo). The following applies: 0.2 nM CK2α, 50 μM peptide substrate, 15 μM ATP, read-out: Assay 1: CK2α Enzyme IC50.

For the next experiment, the target named is T2, CLK2 (Homo sapiens, UniProt P49760).
T2 construct: purchased Carna Biosciences 04-127
Put plainly: Biochemical assay for inhibitors of CLK2 kinase activity (ADP-Glo). The following applies: 20 nM CLK2, 50 μM peptide substrate, 100 μM ATP, read-out: Assay 2: CLK2 Enzyme IC50.

The target in the next experiment is T3, intracellular CK2α (Homo sapiens, UniProt P19784).
T3 construct: host or cells: HCT116 (ATCC CCL-247)
Put plainly: Cell-based NanoBRET assay for inhibitor binding to intracellular CK2α. The settings on record: HCT116 cells transiently transfected with CSNK2A2-NanoLuc fusion vector; Tracer K-5; 2 h; read-out: Assay 3: NanoBRET ™ assay for binding to intracellular CK2α. An outline of the steps:
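Living cells expressing NanoLuc-CK2α fusion were given a fixed tracer concentration, and compounds competitively displaced the reversibly bound tracer. Donor (450 nm) and acceptor (610 or 630 nm) emissions were read; BRET ratio = (acceptor/donor)×1,000, giving apparent intracellular affinity.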

T3 sequence (P19784 whole entry): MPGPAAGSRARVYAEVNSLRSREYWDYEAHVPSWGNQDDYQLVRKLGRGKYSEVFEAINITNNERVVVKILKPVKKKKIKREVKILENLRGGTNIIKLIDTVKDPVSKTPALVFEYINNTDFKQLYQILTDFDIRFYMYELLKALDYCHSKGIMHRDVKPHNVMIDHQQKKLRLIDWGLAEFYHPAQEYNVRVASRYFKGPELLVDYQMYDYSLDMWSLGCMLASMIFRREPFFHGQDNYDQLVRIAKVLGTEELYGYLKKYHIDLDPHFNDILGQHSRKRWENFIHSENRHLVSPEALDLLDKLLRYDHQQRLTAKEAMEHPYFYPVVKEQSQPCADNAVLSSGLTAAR
T2 sequence (P49760 whole entry): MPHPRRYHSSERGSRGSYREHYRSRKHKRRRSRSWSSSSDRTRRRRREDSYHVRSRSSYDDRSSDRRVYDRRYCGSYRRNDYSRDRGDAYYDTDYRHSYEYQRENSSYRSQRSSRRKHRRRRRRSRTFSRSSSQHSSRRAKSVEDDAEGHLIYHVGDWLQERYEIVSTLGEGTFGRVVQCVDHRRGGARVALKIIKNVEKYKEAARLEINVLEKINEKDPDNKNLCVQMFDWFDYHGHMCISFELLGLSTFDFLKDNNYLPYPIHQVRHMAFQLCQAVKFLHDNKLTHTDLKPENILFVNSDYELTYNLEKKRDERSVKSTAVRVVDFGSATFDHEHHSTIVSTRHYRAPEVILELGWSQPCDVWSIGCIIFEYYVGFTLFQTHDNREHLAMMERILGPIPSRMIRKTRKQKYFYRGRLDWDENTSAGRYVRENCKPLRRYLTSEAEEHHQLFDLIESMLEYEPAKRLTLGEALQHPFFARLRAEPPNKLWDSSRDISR

On to `OCc1cc(Cl)cc(CNCCCCOC2CN(c3cc(-c4cnoc4)cc4[nH]ncc34)C2)c1` [Example 136, (3-chloro-5-(((4-((1-(6-(isoxazol-4-yl)-1H-indazol-4-yl)azetidin-3-yl)oxy)butyl)amino)methyl)phenyl)methanol], for which the values for the IC50 on CK2α, at CLK2 and at intracellular CK2α were 33.1 nM, 124 nM and 3350 nM, respectively.

On to `FC(F)(F)Oc1ccc(CNCCCCOC2CN(c3cc(-c4cnoc4)cc4[nH]ncc34)C2)cc1Cl` [Example 137, N-(3-chloro-4-(trifluoromethoxy)benzyl)-4-((1-(6-(isoxazol-4-yl)-1H-indazol-4-yl)azetidin-3-yl)oxy)butan-1-amine], for which the values for the IC50 at CK2α, on CLK2 and on intracellular CK2α were 13 nM, 333 nM and 2870 nM, respectively.

Turning to `OCc1cc(F)cc(CNCCCCOC2CN(c3cc(-c4cnoc4)cc4[nH]ncc34)C2)c1` [Example 138, (3-fluoro-5-(((4-((1-(6-(isoxazol-4-yl)-1H-indazol-4-yl)azetidin-3-yl)oxy)butyl)amino)methyl)phenyl)methanol], the figures for the IC50 at CK2α, on CLK2 and at intracellular CK2α were 33.7 nM, 115 nM and 5920 nM, respectively.

In the case of `FC(F)(F)c1ccc2[nH]c(CNCCCCOC3CN(c4cc(-c5cnoc5)cc5[nH]ncc45)C3)cc2c1` [Example 139, 4-((1-(6-(isoxazol-4-yl)-1H-indazol-4-yl)azetidin-3-yl)oxy)-N-((5-(trifluoromethyl)-1H-indol-2-yl)methyl)butan-1-amine], the IC50 came to 10.9 nM at CK2α, 498 nM at CLK2 and 2360 nM at intracellular CK2α.

Turning to `FC(F)(F)c1ccc2[nH]c(CNCCCCOC3CN(c4cc(-c5ccnnc5)cc5[nH]ncc45)C3)cc2c1` [Example 140, 4-((1-(6-(pyridazin-4-yl)-1H-indazol-4-yl)azetidin-3-yl)oxy)-N-((5-(trifluoromethyl)-1H-indol-2-yl)methyl)butan-1-amine], the IC50 at CK2α came to 10.2 nM; at CLK2, 2030 nM; on intracellular CK2α, 2800 nM.

Turning to `N#CCc1cc(CNCCCCOCCNc2cc(-n3cnnc3)cc3[nH]nnc23)cc(OC(F)(F)F)c1` [Example 141, 2-(3-(((4-(2-((6-(4H-1,2,4-triazol-4-yl)-1H-benzo[d][1,2,3]triazol-4-yl)amino)ethoxy)butyl)amino)methyl)-5-(trifluoromethoxy)phenyl)acetonitrile], the IC50 at CK2α was 2.77 nM; on CLK2, 17800 nM; at intracellular CK2α, 2060 nM.

Take `FC(F)(F)c1ccc2[nH]c(CNCCCCOCCNc3cc(-n4cnnc4)cc4[nH]nnc34)cc2c1` [Example 142, 6-(4H-1,2,4-triazol-4-yl)-N-(2-(4-(((5-(trifluoromethyl)-1H-indol-2-yl)methyl)amino)butoxy)ethyl)-1H-benzo[d][1,2,3]triazol-4-amine]: the IC50 on CK2α is 5.43 nM; on CLK2 it was 4790 nM; on intracellular CK2α, 3860 nM.

In the case of `FC(F)(F)c1ccc2[nH]c(CNCCCCOCCNc3cc(-c4cnoc4)cc4[nH]nnc34)cc2c1` [Example 143, 6-(isoxazol-4-yl)-N-(2-(4-(((5-(trifluoromethyl)-1H-indol-2-yl)methyl)amino)butoxy)ethyl)-1H-benzo[d][1,2,3]triazol-4-amine], the IC50 at CK2α was 7.01 nM; on CLK2, 625 nM; at intracellular CK2α, 564 nM.

For the compound `FC(F)(F)c1ccc2[nH]c(CNCCCCOCCOc3cc(-c4cnoc4)cc4[nH]ncc34)cc2c1` [Example 144, 4-(2-((6-(isoxazol-4-yl)-1H-indazol-4-yl)oxy)ethoxy)-N-((5-(trifluoromethyl)-1H-indol-2-yl)methyl)butan-1-amine], the IC50 on CK2α was found to be 4.72 nM; on CLK2 it was 271 nM; at intracellular CK2α, 347 nM.

As to `N#CCc1cc(CNCCCCOC2CN(c3cc(-c4cnoc4)cc4[nH]ncc34)C2)cc(C(F)(F)F)c1` [Example 145, 2-(3-(((4-((1-(6-(isoxazol-4-yl)-1H-indazol-4-yl)azetidin-3-yl)oxy)butyl)amino)methyl)-5-(trifluoromethyl)phenyl)acetonitrile], the results for the IC50 on CK2α, on CLK2 and on intracellular CK2α were 25.4 nM, 186 nM and 1730 nM, respectively.

For the compound `N#CCc1cc(CNCCCCOC2CN(c3cc(-c4cnoc4)cc4[nH]ncc34)C2)cc(OC(F)(F)F)c1` [Example 146, 2-(3-(((4-((1-(6-(isoxazol-4-yl)-1H-indazol-4-yl)azetidin-3-yl)oxy)butyl)amino)methyl)-5-(trifluoromethoxy)phenyl)acetonitrile], the IC50 worked out at 8.18 nM on CK2α, 152 nM on CLK2 and 299 nM on intracellular CK2α.

`N#CCc1cc(CNCCCCOC2CN(c3cc(-n4cnnc4)cc4[nH]ncc34)C2)cc(OC(F)(F)F)c1` [Example 147, 2-(3-(((4-((1-(6-(4H-1,2,4-triazol-4-yl)-1H-indazol-4-yl)azetidin-3-yl)oxy)butyl)amino)methyl)-5-(trifluoromethoxy)phenyl)acetonitrile]: the IC50 at CK2α was 8.8 nM; at CLK2, 300 nM; on intracellular CK2α, 528 nM.

Consider `N#CCc1cc(CNCCCCOCCOc2cc(-n3cnnc3)cc3[nH]nnc23)cc(OC(F)(F)F)c1` [Example 148, 2-(3-(((4-(2-((6-(4H-1,2,4-triazol-4-yl)-1H-benzo[d][1,2,3]triazol-4-yl)oxy)ethoxy)butyl)amino)methyl)-5-(trifluoromethoxy)phenyl)acetonitrile], for which the values for the IC50 at CK2α, on CLK2 and at intracellular CK2α were 138 nM, greater than 50000 nM and greater than 50000 nM, respectively.

On to `FC(F)(F)c1ccc2[nH]c(CNCCCCOC3CN(c4cc(-c5ccnnc5)cc5[nH]nnc45)C3)cc2c1` [Example 149, 4-((1-(6-(pyridazin-4-yl)-1H-benzo[d][1,2,3]triazol-4-yl)azetidin-3-yl)oxy)-N-((5-(trifluoromethyl)-1H-indol-2-yl)methyl)butan-1-amine], for which the IC50 was 255 nM at CK2α, 15300 nM on CLK2 and greater than 50000 nM on intracellular CK2α.

Regarding `FC(F)(F)Oc1ccc(CNCCCCOC2CN(c3cc(-c4ccnnc4)cc4[nH]nnc34)C2)cc1Cl` [Example 150, N-(3-chloro-4-(trifluoromethoxy)benzyl)-4-((1-(6-(pyridazin-4-yl)-1H-benzo[d][1,2,3]triazol-4-yl)azetidin-3-yl)oxy)butan-1-amine], the IC50 was 338 nM on CK2α, 17700 nM on CLK2 and 39300 nM at intracellular CK2α.

Turning to `N#CCc1cc(CNCCCCOC2CN(c3cc(-c4ccnnc4)cc4[nH]nnc34)C2)cc(OC(F)(F)F)c1` [Example 151, 2-(3-(((4-((1-(6-(pyridazin-4-yl)-1H-benzo[d][1,2,3]triazol-4-yl)azetidin-3-yl)oxy)butyl)amino)methyl)-5-(trifluoromethoxy)phenyl)acetonitrile], the values for the IC50 on CK2α, on CLK2 and on intracellular CK2α were 187 nM, 39800 nM and 19300 nM, respectively.

`FC(F)(F)c1ccc2[nH]c(CNCCCCOC3CN(c4cc(-n5cnnc5)cc5[nH]nnc45)C3)cc2c1` [Example 152, 4-((1-(6-(4H-1,2,4-triazol-4-yl)-1H-benzo[d][1,2,3]triazol-4-yl)azetidin-3-yl)oxy)-N-((5-(trifluoromethyl)-1H-indol-2-yl)methyl)butan-1-amine]: the IC50 at CK2α was 49.7 nM; at CLK2, 5820 nM; at intracellular CK2α, greater than 50000 nM.

With `FC(F)(F)Oc1ccc(CNCCCCOC2CN(c3cc(-n4cnnc4)cc4[nH]nnc34)C2)cc1Cl` [Example 153, 4-((1-(6-(4H-1,2,4-triazol-4-yl)-1H-benzo[d][1,2,3]triazol-4-yl)azetidin-3-yl)oxy)-N-(3-chloro-4-(trifluoromethoxy)benzyl)butan-1-amine], the IC50 at CK2α turned out to be 136 nM; at CLK2, 11600 nM; at intracellular CK2α it was 34200 nM.

With `N#CCc1cc(CNCCCCOC2CN(c3cc(-n4cnnc4)cc4[nH]nnc34)C2)cc(OC(F)(F)F)c1` [Example 154, 2-(3-(((4-((1-(6-(4H-1,2,4-triazol-4-yl)-1H-benzo[d][1,2,3]triazol-4-yl)azetidin-3-yl)oxy)butyl)amino)methyl)-5-(trifluoromethoxy)phenyl)acetonitrile], the IC50 on CK2α is 170 nM; on CLK2 it was 24700 nM; on intracellular CK2α, greater than 50000 nM.

Regarding `N#Cc1[nH]ncc1-c1cc(NCCCNC(=O)CCNCc2ccc(OC(F)(F)F)c(Cl)c2)c2cn[nH]c2c1` [Example 156, 3-((3-chloro-4-(trifluoromethoxy)benzyl)amino)-N-(3-((6-(5-cyano-1H-pyrazol-4-yl)-1H-indazol-4-yl)amino)propyl)propanamide], the IC50 on CK2α turned out to be 0.64 nM; at CLK2, 71 nM; at intracellular CK2α it was 108 nM.

As for `O=C(CCNCc1ccc(OC(F)(F)F)c(Cl)c1)NCCCNc1cc(-c2nnco2)cc2[nH]ncc12` [Example 157, N-(3-((6-(1,3,4-oxadiazol-2-yl)-1H-indazol-4-yl)amino)propyl)-3-((3-chloro-4-(trifluoromethoxy)benzyl)amino)propanamide], the IC50 on CK2α was determined as 9.06 nM; at CLK2, 1650 nM; at intracellular CK2α it was 828 nM.

These data come from patent publication US20260085062A1, “NOVEL COMPOUNDS AS CK2 INHIBITORS” (Cambridge Enterprise Limited, priority 2022, published 2026).
